This note sets out measurements from US20240150293A1, “SPIROCYCLOHEXANE DERIVATIVES, PHARMACEUTICAL COMPOSITIONS CONTAINING THEM AND THEIR USES AS ANTI-APOPTOTIC INHIBITORS” (LES LABORATOIRES SERVIER, priority 2021, published 2024).

Mcl-1 protein, sequence (Q07820 whole entry): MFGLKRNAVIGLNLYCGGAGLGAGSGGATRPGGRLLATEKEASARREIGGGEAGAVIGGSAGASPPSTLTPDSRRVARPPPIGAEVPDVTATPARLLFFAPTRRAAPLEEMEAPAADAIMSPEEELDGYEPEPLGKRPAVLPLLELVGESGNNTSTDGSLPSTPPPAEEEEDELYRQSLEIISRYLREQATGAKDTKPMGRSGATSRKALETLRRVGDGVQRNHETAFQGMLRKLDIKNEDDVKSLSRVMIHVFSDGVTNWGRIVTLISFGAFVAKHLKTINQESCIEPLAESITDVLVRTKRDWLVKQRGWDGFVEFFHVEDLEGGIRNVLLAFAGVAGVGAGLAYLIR

The target in the assay is Mcl-1 protein (UniProtKB Q07820) (Homo sapiens (Human), UniProt Q07820). The experiment in a line: Inhibition of Mcl-1 by the fluorescence polarisation assay (Example A, Method A). In kind it is binding. The conditions noted are these: fluorescence polarization assay. As for the experimental part:
The relative binding potency of each compound was determined via Fluorescence Polarisation (FP). The method utilised a Fluorescein labelled ligand (Fluorescein-βAla-Ahx-A-REIGAQLRRMADDLNAQY-OH; MW 2,765) which binds to the Mcl-1 protein (such that Mcl-1 corresponds to the UniProtKB® primary accession number: Q07820) leading to an increased anisotropy measured in milli-polarisation (mP) units using a reader. The addition of a compound which binds competitively to the same site as the ligand will result in a greater proportion of unbound ligand in the system indicated by a decrease in mP units.
An 11 point serial dilution of each compound was prepared in DMSO and 2 μl transferred into flat bottomed, low binding, 384-well plate (final DMSO concentration 5%). 38 μl of buffer containing the Fluorescein labelled ligand (final concentration 1 nM) and Mcl-1 protein (final concentration 5 nM) was then added. Buffer components were 10 mM 4-(2-hydroxyethyl)-1-piperazineethanesulfonic acid [HEPES], 150 mM NaCl, pH 7.4 with the addition of 0.05% Tween 20.
Assay plates were incubated for 2 hours at room temperature before FP was measured on a […] Synergy Neo reader ([…], Cut off 510 nm) and mP units calculated. The binding of increasing doses of test compound was expressed as a percentage reduction in mP compared to a window established between ‘5% DMSO only’ and ‘100% inhibition’ controls. 11-point dose response curves were plotted with XL-Fit software using a 4-Parameter Logistic Model (Sigmoidal Dose-Response Model) and the inhibitory concentrations that gave a 50% reduction in mP (IC50) were determined. The Ki values were determined from the IC50 values according to Cer et al, Nucleic Acids Res, 2009, 37 (WebServer issue): W441-W445. Inhibition constants (Ki) are determined from complete binding inhibition curves (cKi) or from estimated from incomplete binding inhibition curves (eKi) in most cases due to low activity.
On the technique in general: Polarisation of emitted light reports the rotation of a fluorescent probe.
In the case of `COc1cc(C)cc(C2=Cc3ccccc3[C@]23CC[C@@](Nc2cccc(Cl)c2)(C(=O)O)CC3)c1` [Example 310, (1s,4s)-4-(3-chloroanilino)-2′-(3-methoxy-5-methylphenyl)spiro[cyclohexane-1,1′-indene]-4-carboxylic acid], the Ki came out at 0.721 µM.

As for `Cc1cc(C2=Cc3ccccc3C23CCC(Nc2cccc(Br)c2)(C(=O)O)CC3)ccc1Cl` (single isomer, unassigned) [Example 235, 4-(3-bromoanilino)-2′-(4-chloro-3-methylphenyl)spiro[cyclohexane-1,1′-indene]-4-carboxylic acid], the Ki was determined as 136 µM.

For the molecule `C[C@@H](COc1ccnc(CO)c1)C[C@H]1Cc2ccccc2[C@]12CC[C@@](Nc1cccc(Cl)c1)(C(=O)O)CC2` [Example 579, (1r,2′S,4S)-4-(3-chloroanilino)-2′-[(2R)-3-{[2-(hydroxymethyl)pyridin-4-yl]oxy}-2-methylpropyl]-2′,3′-dihydrospiro[cyclohexane-1,1′-indene]-4-carboxylic acid], the Ki came to 0.216 µM.

Regarding `O=C(O)[C@]1(Nc2cccc(Cl)c2)CC[C@]2(CC1)C(c1cccc(OC(F)(F)F)c1)=Cc1ccccc12` [Example 314, (1s,4s)-4-(3-chloroanilino)-2′-[3-(trifluoromethoxy)phenyl]spiro[cyclohexane-1,1′-indene]-4-carboxylic acid], the Ki was 0.528 µM.

For the molecule `Cn1ccc2cc(C3Cc4ccccc4[C@]34CC[C@@](Nc3cccc(Cl)c3)(C(=O)O)CC4)ccc21` (some centres unmarked) [Example 274, (1r,4r)-4-(3-chloroanilino)-2′-(1-methyl-1H-indol-5-yl)-2′,3′-dihydrospiro[cyclohexane-1,1′-indene]-4-carboxylic acid], the Ki is 4.69 µM.

Regarding `CC1=Nc2ccccc2[C@]12CC[C@](Nc1cccc(Br)c1)(C(=O)O)CC2` [Example 22, (1r,4r)-4-(3-bromoanilino)-2′-methylspiro[cyclohexane-1,3′-indole]-4-carboxylic acid], the Ki turned out to be 24.1 µM.

Take `O=C(O)[C@]1(Nc2cccc(Cl)c2)CC[C@]2(CC1)C(C1CN(Cc3ccncc3)C1)=Cc1ccccc12` [Example 98, (1r,4r)-4-(3-chloroanilino)-2′-{1-[(pyridin-4-yl)methyl]azetidin-3-yl}spiro[cyclohexane-1,1′-indene]-4-carboxylic acid]: the Ki amounted to 10.4 µM.

As for `O=C(O)C1(Nc2cccc(Br)c2)CCC2(CC1)CNc1ccccc12` (centres unmarked) [Example 3, 4-(3-bromoanilino)-1′,2′-dihydrospiro[cyclohexane-1,3′-indole]-4-carboxylic acid], the Ki worked out at 12.8 µM.

As to `O=C(O)[C@]1(Nc2cccc(Cl)c2)CC[C@]2(CC1)C(CC(CO)COc1ccnc3ccsc13)=Cc1ccccc12` (some centres unmarked) [Example 491, (1r,4r)-4-(3-chloroanilino)-2′-{2-(hydroxymethyl)-3-[(thieno[3,2-b]pyridin-7-yl)oxy]propyl}spiro[cyclohexane-1,1′-indene]-4-carboxylic acid], the Ki is 0.154 µM.

For `O=C(O)C1(Nc2cccc(Cl)c2)CCC2(CC1)c1ccccc1-c1ccccc12` [Example 118, 4-(3-chloroanilino)spiro[cyclohexane-1,9′-fluorene]-4-carboxylic acid], the inhibition constant Ki was 3.99 µM.

As for `COc1ccc(C)c(C2Cc3ccccc3[C@]23CC[C@@](Nc2cccc(Cl)c2)(C(=O)O)CC3)c1` (single isomer, unassigned) [Example 271, (1r,4r)-4-(3-chloroanilino)-2′-(5-methoxy-2-methylphenyl)-2′,3′-dihydrospiro[cyclohexane-1,1′-indene]-4-carboxylic acid], the Ki came to 12.5 µM.

For the molecule `O=C(O)[C@]1(Nc2cccc(Cl)c2)CC[C@@]2(CC1)c1ccccc1CC2[C@H]1C[C@@H]1COc1ccccc1` (relative stereo) [Example 111, (1r,4r)-4-(3-chloroanilino)-2′-[(1R*,2S*)-2-(phenoxymethyl)cyclopropyl]-2′,3′-dihydrospiro[cyclohexane-1,1′-indene]-4-carboxylic acid], the Ki is 9.68 µM.

With `COc1ccc(Cl)c(C2Cc3ccccc3[C@]23CC[C@@](Nc2ccccc2)(C(=O)O)CC3)c1` (single isomer, unassigned) [Example 261, (1r,4r)-4-anilino-2′-(2-chloro-5-methoxyphenyl)-2′,3′-dihydrospiro[cyclohexane-1,1′-indene]-4-carboxylic acid], the Ki was 9.4 µM.

Take `O=C(O)[C@]1(Nc2cccc(Cl)c2)CC[C@@]2(CC1)c1ccccc1C[C@H]2c1ccc2occc2c1` [Example 281, (1r,2′S,4S)-2′-(1-benzofuran-5-yl)-4-(3-chloroanilino)-2′,3′-dihydrospiro[cyclohexane-1,1′-indene]-4-carboxylic acid]: the Ki turned out to be 0.473 µM.

Take `O=C(O)[C@]1(Nc2cccc(Cl)c2)CC[C@@]2(CC1)c1ccccc1CC2c1coc2ccccc12` (single isomer, unassigned) [Example 284, (1r,4r)-2′-(1-benzofuran-3-yl)-4-(3-chloroanilino)-2′,3′-dihydrospiro[cyclohexane-1,1′-indene]-4-carboxylic acid]: the Ki amounted to 1.22 µM.

For the molecule `O=C(O)C1(Nc2cccc(Br)c2)CCC2(CC1)c1ccccc1CC2c1ccc(OCc2ccccc2)cc1` (centres unmarked) [Example 244, 2′-[4-(benzyloxy)phenyl]-4-(3-bromoanilino)-2′,3′-dihydrospiro[cyclohexane-1,1′-indene]-4-carboxylic acid], the Ki turned out to be 0.779 µM.

Regarding `O=C(O)[C@]1(Nc2cccc(Cl)c2)CC[C@@]2(CC1)c1ccccc1CC2[C@H]1C[C@@H]1COc1ccnc2ccsc12` (single isomer, unassigned) [Example 106, (1r,4r)-4-(3-chloroanilino)-2′-[(1R*,2S*)-2-{[(thieno[3,2-b]pyridin-7-yl)oxy]methyl}cyclopropyl]-2′,3′-dihydrospiro[cyclohexane-1,1′-indene]-4-carboxylic acid], the Ki was 2.26 µM.

Take `COc1cccc(N2Cc3ccccc3[C@]23CC[C@@](Nc2cccc(Br)c2)(C(=O)O)CC3)c1` [Example 32, (1s,4s)-4-(3-bromoanilino)-2′-(3-methoxyphenyl)-2′,3′-dihydrospiro[cyclohexane-1,1′-isoindole]-4-carboxylic acid]: the Ki came out at 3.21 µM.

`O=C(O)[C@]1(Nc2cccc(Cl)c2)CC[C@@]2(CC1)c1ccccc1[C@@H]1C[C@@H]12` (single isomer, unassigned) [Example 108, (1r,1′aR*,4r,6′aS*)-4-(3-chloroanilino)-1′a,6′a-dihydro-1′H-spiro[cyclohexane-1,6′-cyclopropa[a]indene]-4-carboxylic acid]: the inhibition constant (Ki) came to 5.73 µM.

`CC1CCc2nccc(OCCCC3Cc4ccccc4[C@]34CC[C@@](Nc3cccc(Cl)c3)(C(=O)O)CC4)c21` (some centres unmarked) [Example 478, (1r,4r)-4-(3-chloroanilino)-2′-{3-[(5-methyl-6,7-dihydro-5H-cyclopenta[b]pyridin-4-yl)oxy]propyl}-2′,3′-dihydrospiro[cyclohexane-1,1′-indene]-4-carboxylic acid]: the Ki came to 0.0297 µM.

With `CC1=Cc2cccc(C)c2C12CCC(Nc1cccc(Br)c1)(C(=O)O)CC2` (centres unmarked) [Example 125, 4-(3-bromoanilino)-2′,7′-dimethylspiro[cyclohexane-1,1′-indene]-4-carboxylic acid], the Ki was 7.5 µM.

As to `O=C(O)[C@]1(Nc2cccc(Cl)c2)CC[C@]2(CC1)C(c1ccc(OCc3ccccc3)cc1)=Cc1ccccc12` [Example 309, (1s,4s)-2′-[4-(benzyloxy)phenyl]-4-(3-chloroanilino)spiro[cyclohexane-1,1′-indene]-4-carboxylic acid], the Ki is 0.732 µM.

Take `O=C(O)[C@]1(Nc2cccc(Cl)c2)CC[C@]2(CC1)C(c1cc3c(-c4ccncc4)cccc3o1)=Cc1ccccc12` [Example 361, (1s,4s)-4-(3-chloroanilino)-2′-[4-(pyridin-4-yl)-1-benzofuran-2-yl]spiro[cyclohexane-1,1′-indene]-4-carboxylic acid]: the Ki turned out to be 14.8 µM.

On to `COc1ccc([C@H]2Cc3ccccc3[C@]23CC[C@@](Nc2cccc(Br)c2)(C(=O)O)CC3)cc1` [Example 218, (1r,2′R,4R)-4-(3-bromoanilino)-2′-(4-methoxyphenyl)-2′,3′-dihydrospiro[cyclohexane-1,1′-indene]-4-carboxylic acid], for which the Ki is 13.4 µM.

Regarding `O=C(O)C1(Nc2cccc(Cl)c2)CCC2(C=Cc3cccnc32)CC1` (single isomer, unassigned) [Example 72, 4-(3-chloroanilino)spiro[cyclohexane-1,7′-cyclopenta[b]pyridine]-4-carboxylic acid], the Ki was determined as 191 µM.

On to `COc1ccc(C2Cc3ccccc3[C@]23CC[C@@](Nc2cccc(Cl)c2)(C(=O)O)CC3)c(Cl)c1` (single isomer, unassigned) [Example 268, (1r,4r)-4-(3-chloroanilino)-2′-(2-chloro-4-methoxyphenyl)-2′,3′-dihydrospiro[cyclohexane-1,1′-indene]-4-carboxylic acid], for which the Ki was 1.02 µM.

The term Ki denotes a measure of affinity in units of concentration, obtained from inhibition or displacement.
